Laboratory results taken from PubChem BioAssay AID2060615 (Molecular Pharmacology Branch, DTP, NCI, 2025).

Test system: 496974-208-R-J2-PDC complex spheroids, growth % test/control
Assay: Anticancer human tumor 496974-208-R-J2-PDC patient-derived pancreatic carcinoma cell line growth inhibition [CLK]
Conditions: for IC50: curve of first compound; for viability, T/C: stronger effect = lower value
In short: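 Multi-cell-type spheroids combined patient-derived tumor cells with HUVEC endothelial cells and human mesenchymal stem cells. Paired agents were dosed in half-log steps down from about clinical Cmax, or from 10 microM where Cmax was unknown.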
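Also: spheroids exposed to the drugs for 7 days before readout.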
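For viability, T/C in this document: 100% = DMSO vehicle control wells.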

**Q.** `CCN1CCN(Cc2ccc(Nc3ncc(F)c(-c4cc(F)c5nc(C)n(C(C)C)c5c4)n3)nc2)CC1` + CNC(=O)c1ccc(Nc2nc(OC3CCCC3)c3c(-c4ccc5nc(C)oc5c4)c[nH]c3n2)c(OC)c1 was tested. Which IC50 (second compound 0.0316 µM) did it give?
**A.** > 1000 nM

**Q.** What about the IC50 (second compound 0.1 µM) of the same compound?
**A.** > 1000 nM

**Q.** And the IC50 (second compound 0.316 µM)?
**A.** > 1000 nM

**Q.** And the IC50 (second compound 1 µM)?
**A.** > 1000 nM

**Q.** What about the IC50 (second compound 3.16 µM) of the same compound?
**A.** > 1000 nM

**Q.** What about the IC50 (second compound 10 µM) of the same compound?
**A.** > 1000 nM

**Q.** And the viability, T/C (second compound 0.0316 µM, first compound 0.00316 µM)?
**A.** 91.7%

**Q.** And the viability, T/C (second compound 0.0316 µM, first compound 0.01 µM)?
**A.** 90.2%

**Q.** What about the viability, T/C (second compound 0.0316 µM, first compound 0.0316 µM) of the same compound?
**A.** 90.1%

**Q.** And the viability, T/C (second compound 0.0316 µM, first compound 0.1 µM)?
**A.** 94.2%

**Q.** What about the viability, T/C (second compound 0.0316 µM, first compound 0.316 µM) of the same compound?
**A.** 98%

**Q.** What about the viability, T/C (second compound 0.0316 µM, first compound 1 µM) of the same compound?
**A.** 98.4%

**Q.** And the viability, T/C (second compound 0.1 µM, first compound 0.00316 µM)?
**A.** 89.5%

**Q.** And the viability, T/C (second compound 0.1 µM, first compound 0.01 µM)?
**A.** 88.9%

**Q.** What about the viability, T/C (second compound 0.1 µM, first compound 0.0316 µM) of the same compound?
**A.** 87.9%

**Q.** And the viability, T/C (second compound 0.1 µM, first compound 0.1 µM)?
**A.** 84.2%

**Q.** And the viability, T/C (second compound 0.1 µM, first compound 0.316 µM)?
**A.** 86.8%

**Q.** And the viability, T/C (second compound 0.1 µM, first compound 1 µM)?
**A.** 97.5%

**Q.** And the viability, T/C (second compound 0.316 µM, first compound 0.00316 µM)?
**A.** 81.3%

**Q.** And the viability, T/C (second compound 0.316 µM, first compound 0.01 µM)?
**A.** 81.9%

**Q.** And the viability, T/C (second compound 0.316 µM, first compound 0.0316 µM)?
**A.** 87.8%

**Q.** What about the viability, T/C (second compound 0.316 µM, first compound 0.1 µM) of the same compound?
**A.** 81.4%

**Q.** What about the viability, T/C (second compound 0.316 µM, first compound 0.316 µM) of the same compound?
**A.** 85.4%

**Q.** What about the viability, T/C (second compound 0.316 µM, first compound 1 µM) of the same compound?
**A.** 94.8%

**Q.** And the viability, T/C (second compound 1 µM, first compound 0.00316 µM)?
**A.** 78.7%

**Q.** And the viability, T/C (second compound 1 µM, first compound 0.01 µM)?
**A.** 81.2%

**Q.** What about the viability, T/C (second compound 1 µM, first compound 0.0316 µM) of the same compound?
**A.** 77.7%

**Q.** And the viability, T/C (second compound 1 µM, first compound 0.1 µM)?
**A.** 76.3%

**Q.** And the viability, T/C (second compound 1 µM, first compound 0.316 µM)?
**A.** 92.6%

**Q.** What about the viability, T/C (second compound 1 µM, first compound 1 µM) of the same compound?
**A.** 81.8%

**Q.** What about the viability, T/C (second compound 3.16 µM, first compound 0.00316 µM) of the same compound?
**A.** 72.5%

**Q.** And the viability, T/C (second compound 3.16 µM, first compound 0.01 µM)?
**A.** 71.9%

**Q.** And the viability, T/C (second compound 3.16 µM, first compound 0.0316 µM)?
**A.** 66.7%

**Q.** What about the viability, T/C (second compound 3.16 µM, first compound 0.1 µM) of the same compound?
**A.** 77.6%

**Q.** And the viability, T/C (second compound 3.16 µM, first compound 0.316 µM)?
**A.** 69.3%

**Q.** What about the viability, T/C (second compound 3.16 µM, first compound 1 µM) of the same compound?
**A.** 73.7%

**Q.** What about the viability, T/C (second compound 10 µM, first compound 0.00316 µM) of the same compound?
**A.** 63%

**Q.** And the viability, T/C (second compound 10 µM, first compound 0.01 µM)?
**A.** 61.7%

**Q.** What about the viability, T/C (second compound 10 µM, first compound 0.0316 µM) of the same compound?
**A.** 67.7%

**Q.** And the viability, T/C (second compound 10 µM, first compound 0.1 µM)?
**A.** 69.3%

**Q.** What about the viability, T/C (second compound 10 µM, first compound 0.316 µM) of the same compound?
**A.** 74.7%

**Q.** And the viability, T/C (second compound 10 µM, first compound 1 µM)?
**A.** 75%
